# Values of other authors, collected in US20260097000A1, “INTRANASAL DELIVERY OF CANNABINOIDS” (priority 2022, published 2026).
# Columns and labels:
# [1] = oral delivery
# [2] = rats, oral 10 mg kg^−1 and pulmonary 20 mg kg^−1
compound,measurement,setting,value
"C=C(C)[C@@H]1CCC(C)=C[C@H]1c1c(O)cc(CCCCC)cc1O [CBD, cannabidiol]",7-hydroxy-cannabidiol (7-OH-CBD) metabolite share of orally delivered CBD,[1],40%
same,CBD levels in the brain,[2],200 to 300 ng/g
